Patent publication US20250275953A1, “VODOBATINIB FOR REDUCING PROGRESSION OF PARKINSON'S DISEASE” (Sun Pharma Advanced Research Company Ltd., priority 2022, published 2025)
Where “and” joins values, the source holds several entries; their conditions need not be identical. Equal entries are not always repeated. Where two headings read alike, the source gives them in different places.

Assay: Plasma pharmacokinetics, Parkinson's disease patients, once daily for 14 days
Assay type: in vivo, human
Conditions: PD patients; for AUC(0-t) / AUC / half-life / Cmax / Tmax: human; for AUC(0-t): read-out: AUC0-24 Mean
Text: Of these, 44 subjects completed the study. An additional 10 subjects were enrolled in the open label part of the study, of these, one subject was discontinued due to an AE of vomiting.
Safety population was comprised of 48 subjects (not including those in the open label cohorts) and PK population was comprised of 36 subjects from double blind part and 10 subjects from open label part of the study. No subjects were discontinued from the study due to protocol deviation.
The PK analysis was performed on the PK population and safety analysis was performed on this population as per the protocol described before.
Study NCT02970019 was a multi-center safety and tolerability study of vodobatinib in 60 subjects with Parkinson's Disease (diagnosed with PD according to the Brain Bank criteria of the United Kingdom Parkinson's Disease Society) who were randomized to receive placebo or various daily doses of vodobatinib for 14 days in a parallel assignment design with quadruple masking (participant, care provider, investigator, and outcomes assessor.) In study NCT02970019, consecutive cohorts of up to eight subjects received once-daily doses of 6, 12, 18, 24, 48, 96, 192, or 384 mg of study drug for 14 days, with six subjects in each cohort on vodobatinib and two subjects in each cohort on placebo. An alternating panel design was used such that subjects in the 6 and 18 mg cohorts were the same, and subjects in the 12 and 24 mg cohorts were the same, thus yielding 48 total individuals enrolled in the eight cohorts. There was a wash-out period of 14 days between each were studied in sequential ascending dose cohorts. In parallel to the double-blind cohorts, up to four subjects per dose cohort were enrolled in an open-label study of vodobatinib to receive 24, 48 or 96 mg once-daily doses of for 14 days. These subjects underwent lumbar puncture to collect CSF on Day 1, and 2-3 h after the last morning dose on Day 14. PK blood draws (for both double-blind and open label) were collected at pre-dose (˜30 min) and at 0.5, 1, 2, 4, 8, 12 and 24 h post-dose on Days 1 and 14.
Vodobatinib levels in plasma and CSF were determined using a fully validated LC-MS/MS assay with lower limits of quantitation (LLOQ) of 2.5 ng/mL and 0.05 ng/mL, respectively. PK analyses were performed using standard non-compartmental analysis with Phoenix® WinNonlin® software Version 6.4 to estimate the PK parameters Cmax, Tmax, AUCtau and Css. Descriptive statistics were used to characterize vodobatinib concentrations and PK parameters in plasma and CSF. Statistical calculations were performed with SAS software (Version 9.4, SAS Institute, Cary, North Carolina, USA).

## Cc1ccc(C(=O)NNC(=O)c2c(C)cccc2Cl)cc1C#Cc1cnc2ccccc2c1 [N′-(2-chloro-6-methylbenzoyl)-4-methyl-3-[2-(3-quinolyl)ethynyl]-benzohydrazide]
6 mg
  Max Conc Geo. Mean: 138.72 ng/mL
  Max Conc Mean: 182 ng/mL and 181.67 ng/mL
  Max Conc Median: 133.50 ng/mL
12 mg
  Max Conc Geo. Mean: 270.17 ng/mL
  Max Conc Mean: 301.00 ng/mL
  Max Conc Median: 242.50 ng/mL
18 mg
  Max Conc Geo. Mean: 300.12 ng/mL
  Max Conc Mean: 308.50 ng/mL
  Max Conc Median: 310.00 ng/mL
24 mg
  Max Conc Geo. Mean: 677.41 ng/mL
  Max Conc Mean: 715.25 ng/mL
  Max Conc Median: 657.00 ng/mL
48 mg
  Max Conc Geo. Mean: 930.30 ng/mL
  Max Conc Mean: 1110.44 ng/mL
  Max Conc Median: 844.00 ng/mL
96 mg
  Max Conc Geo. Mean: 2298.86 ng/mL
  Max Conc Mean: 2802.50 ng/mL
  Max Conc Median: 2350.00 ng/mL
192 mg
  Max Conc Geo. Mean: 2561.39 ng/mL
  Max Conc Mean: 3233.80 ng/mL
  Max Conc Median: 2580.00 ng/mL
384 mg
  Max Conc Geo. Mean: 4198.52 ng/mL
  Max Conc Mean: 4512 ng/mL and 4512.00 ng/mL
  Max Conc Median: 5320.00 ng/mL
6 mg, Day 14, plasma
  AUC(0-t): 1250 ng·h/mL
6 mg, read-out: AUC Over Dosing Interval Geo. Mean
  AUC: 1090 ng·h/mL
6 mg, read-out: AUC Over Dosing Interval Mean
  AUC: 1250 ng·h/mL
6 mg, read-out: AUC Over Dosing Interval Median
  AUC: 1040 ng·h/mL
6 mg, read-out: AUC Over Dosing Interval Min, Max
  AUC: 470 to 2360 ng·h/mL
6 mg, read-out: Half-Life Lambda Z Geo. Mean (converted)
  half-life: 11.1 h
6 mg, read-out: Half-Life Lambda Z Mean (converted)
  half-life: 11.1 h
6 mg, read-out: Half-Life Lambda Z Median (converted)
  half-life: 11.1 h
6 mg, read-out: Half-Life Lambda Z Min, Max (converted)
  half-life: 11.1 h
12 mg, read-out: AUC Over Dosing Interval Geo. Mean
  AUC: 2710 ng·h/mL
12 mg, read-out: AUC Over Dosing Interval Mean
  AUC: 3250 ng·h/mL
12 mg, read-out: AUC Over Dosing Interval Median
  AUC: 2530 ng·h/mL
12 mg, read-out: AUC Over Dosing Interval Min, Max
  AUC: 1440 to 8240 ng·h/mL
18 mg, read-out: AUC Over Dosing Interval Geo. Mean
  AUC: 2860 ng·h/mL
18 mg, read-out: AUC Over Dosing Interval Mean
  AUC: 3370 ng·h/mL
18 mg, read-out: AUC Over Dosing Interval Median
  AUC: 4160 ng·h/mL
18 mg, read-out: AUC Over Dosing Interval Min, Max
  AUC: 908 to 4260 ng·h/mL
18 mg, read-out: Half-Life Lambda Z Mean (converted)
  half-life: 13.5 h
18 mg, read-out: Half-Life Lambda Z Median (converted)
  half-life: 13.5 h
18 mg, read-out: Half-Life Lambda Z Min, Max (converted)
  half-life: 13.5 h
24 mg, read-out: AUC Over Dosing Interval Geo. Mean
  AUC: 5250 ng·h/mL
24 mg, read-out: AUC Over Dosing Interval Mean
  AUC: 5720 ng·h/mL
24 mg, read-out: AUC Over Dosing Interval Median
  AUC: 6640 ng·h/mL
24 mg, read-out: AUC Over Dosing Interval Min, Max
  AUC: 2460 to 8080 ng·h/mL
24 mg, read-out: Half-Life Lambda Z Geo. Mean (converted)
  half-life: 10.5 h
24 mg, read-out: Half-Life Lambda Z Mean (converted)
  half-life: 10.6 h
24 mg, read-out: Half-Life Lambda Z Median (converted)
  half-life: 10.6 h
24 mg, read-out: Half-Life Lambda Z Min, Max (converted)
  half-life: 8.9 to 12.4 h
48 mg, read-out: AUC Over Dosing Interval Geo. Mean
  AUC: 7010 ng·h/mL
48 mg, read-out: AUC Over Dosing Interval Mean
  AUC: 7910 ng·h/mL
48 mg, read-out: AUC Over Dosing Interval Median
  AUC: 8670 ng·h/mL
48 mg, read-out: AUC Over Dosing Interval Min, Max
  AUC: 2910 to 14200 ng·h/mL
48 mg, read-out: Half-Life Lambda Z Geo. Mean (converted)
  half-life: 16.6 h
48 mg, read-out: Half-Life Lambda Z Mean (converted)
  half-life: 19.6 h
48 mg, read-out: Half-Life Lambda Z Median (converted)
  half-life: 11.3 h
48 mg, read-out: Half-Life Lambda Z Min, Max (converted)
  half-life: 11.2 to 36.3 h
96 mg, read-out: AUC Over Dosing Interval Geo. Mean
  AUC: 15100 ng·h/mL
96 mg, read-out: AUC Over Dosing Interval Mean
  AUC: 17100 ng·h/mL
96 mg, read-out: AUC Over Dosing Interval Median
  AUC: 13900 ng·h/mL
96 mg, read-out: AUC Over Dosing Interval Min, Max
  AUC: 6870 to 38700 ng·h/mL
96 mg, read-out: Half-Life Lambda Z Geo. Mean (converted)
  half-life: 13.2 h
96 mg, read-out: Half-Life Lambda Z Mean (converted)
  half-life: 15.7 h
96 mg, read-out: Half-Life Lambda Z Median (converted)
  half-life: 15.5 h
96 mg, read-out: Half-Life Lambda Z Min, Max (converted)
  half-life: 5.7 to 26.1 h
192 mg, read-out: AUC Over Dosing Interval Geo. Mean
  AUC: 27600 ng·h/mL
192 mg, read-out: AUC Over Dosing Interval Mean
  AUC: 33800 ng·h/mL
192 mg, read-out: AUC Over Dosing Interval Median
  AUC: 24800 ng·h/mL
192 mg, read-out: AUC Over Dosing Interval Min, Max
  AUC: 13800 to 82700 ng·h/mL
384 mg, Day 14, plasma
  AUC(0-t): 43800 ng·h/mL
384 mg, read-out: AUC Over Dosing Interval Geo. Mean
  AUC: 40400 ng·h/mL
384 mg, read-out: AUC Over Dosing Interval Mean
  AUC: 43800 ng·h/mL
384 mg, read-out: AUC Over Dosing Interval Median
  AUC: 44500 ng·h/mL
384 mg, read-out: AUC Over Dosing Interval Min, Max
  AUC: 18600 to 66700 ng·h/mL
oral, 6 mg, Day 1, plasma
  Cmax: 164 ng/mL
  AUC(0-t): 794 ng·h/mL
oral, 6 mg, Day 1, plasma, read-out: Tmax median
  Tmax: 2 h
oral, 6 mg, Day 14, plasma
  Cmax: 182 ng/mL
oral, 6 mg, Day 14, plasma, read-out: Tmax median (range)
  Tmax: 2 h
oral, 12 mg, Day 1, plasma
  Cmax: 255 ng/mL
  AUC(0-t): 2040 ng·h/mL
oral, 12 mg, Day 1, plasma, read-out: Tmax median
  Tmax: 2 h
oral, 12 mg, Day 14, plasma
  Cmax: 301 ng/mL
  AUC(0-t): 3250 ng·h/mL
oral, 12 mg, Day 14, plasma, read-out: Tmax median (range)
  Tmax: 2 h
oral, 18 mg, Day 1, plasma
  Cmax: 410 ng/mL
  AUC(0-t): 2730 ng·h/mL
oral, 18 mg, Day 1, plasma, read-out: Tmax median
  Tmax: 2 h
oral, 18 mg, Day 14, plasma
  Cmax: 309 ng/mL
  AUC(0-t): 3370 ng·h/mL
oral, 18 mg, Day 14, plasma, read-out: Tmax median (range)
  Tmax: 3 h
oral, 24 mg, Day 1, plasma
  Cmax: 385 ng/mL
  AUC(0-t): 2690 ng·h/mL
oral, 24 mg, Day 1, plasma, read-out: Tmax median
  Tmax: 4 h
oral, 24 mg, Day 14, plasma
  Cmax: 715 ng/mL
  AUC(0-t): 5720 ng·h/mL
oral, 24 mg, Day 14, plasma, read-out: Tmax median (range)
  Tmax: 2 h
oral, 48 mg, Day 1, plasma
  Cmax: 964 ng/mL
  AUC(0-t): 5310 ng·h/mL
oral, 48 mg, Day 1, plasma, read-out: Tmax median
  Tmax: 4 h
oral, 48 mg, Day 14, plasma
  Cmax: 1110 ng/mL
  AUC(0-t): 7910 ng·h/mL
oral, 48 mg, Day 14, plasma, read-out: Tmax median (range)
  Tmax: 2 h
oral, 96 mg, Day 1, plasma
  Cmax: 1360 ng/mL
  AUC(0-t): 10200 ng·h/mL
oral, 96 mg, Day 1, plasma, read-out: Tmax median
  Tmax: 4 h
oral, 96 mg, Day 14, plasma
  Cmax: 2800 ng/mL
  AUC(0-t): 17100 ng·h/mL
oral, 96 mg, Day 14, plasma, read-out: Tmax median (range)
  Tmax: 2 h
oral, 192 mg, Day 1, plasma
  Cmax: 1530 ng/mL
  AUC(0-t): 18600 ng·h/mL
oral, 192 mg, Day 1, plasma, read-out: Tmax median
  Tmax: 2 h
oral, 192 mg, Day 14, plasma
  Cmax: 3230 ng/mL
  AUC(0-t): 33800 ng·h/mL
oral, 192 mg, Day 14, plasma, read-out: Tmax median (range)
  Tmax: 1 h
oral, 384 mg, Day 1, plasma
  Cmax: 3020 ng/mL
  AUC(0-t): 29900 ng·h/mL
oral, 384 mg, Day 1, plasma, read-out: Tmax median
  Tmax: 4.1 h
oral, 384 mg, Day 14, plasma
  Cmax: 4510 ng/mL
  AUC(0-t): 43500 ng·h/mL
oral, 384 mg, Day 14, plasma, read-out: Tmax median (range)
  Tmax: 1 h
